Our source for the EC50 values is US20250195524A1, “PYRIMIDO-PYRIDAZINONE COMPOUND AS TOLL-LIKE RECEPTOR AGONIST” (SHANGHAI VISONPHARMA CO., LTD., priority 2022, published 2025).

For one test, the target named is T1, human TLR7 (Homo sapiens, UniProt Q9NYK1).
T1 construct: host or cells: HEK-Blue hTLR7 (HEK293-derived reporter cells)
T1 sequence (Q9NYK1 27-1049): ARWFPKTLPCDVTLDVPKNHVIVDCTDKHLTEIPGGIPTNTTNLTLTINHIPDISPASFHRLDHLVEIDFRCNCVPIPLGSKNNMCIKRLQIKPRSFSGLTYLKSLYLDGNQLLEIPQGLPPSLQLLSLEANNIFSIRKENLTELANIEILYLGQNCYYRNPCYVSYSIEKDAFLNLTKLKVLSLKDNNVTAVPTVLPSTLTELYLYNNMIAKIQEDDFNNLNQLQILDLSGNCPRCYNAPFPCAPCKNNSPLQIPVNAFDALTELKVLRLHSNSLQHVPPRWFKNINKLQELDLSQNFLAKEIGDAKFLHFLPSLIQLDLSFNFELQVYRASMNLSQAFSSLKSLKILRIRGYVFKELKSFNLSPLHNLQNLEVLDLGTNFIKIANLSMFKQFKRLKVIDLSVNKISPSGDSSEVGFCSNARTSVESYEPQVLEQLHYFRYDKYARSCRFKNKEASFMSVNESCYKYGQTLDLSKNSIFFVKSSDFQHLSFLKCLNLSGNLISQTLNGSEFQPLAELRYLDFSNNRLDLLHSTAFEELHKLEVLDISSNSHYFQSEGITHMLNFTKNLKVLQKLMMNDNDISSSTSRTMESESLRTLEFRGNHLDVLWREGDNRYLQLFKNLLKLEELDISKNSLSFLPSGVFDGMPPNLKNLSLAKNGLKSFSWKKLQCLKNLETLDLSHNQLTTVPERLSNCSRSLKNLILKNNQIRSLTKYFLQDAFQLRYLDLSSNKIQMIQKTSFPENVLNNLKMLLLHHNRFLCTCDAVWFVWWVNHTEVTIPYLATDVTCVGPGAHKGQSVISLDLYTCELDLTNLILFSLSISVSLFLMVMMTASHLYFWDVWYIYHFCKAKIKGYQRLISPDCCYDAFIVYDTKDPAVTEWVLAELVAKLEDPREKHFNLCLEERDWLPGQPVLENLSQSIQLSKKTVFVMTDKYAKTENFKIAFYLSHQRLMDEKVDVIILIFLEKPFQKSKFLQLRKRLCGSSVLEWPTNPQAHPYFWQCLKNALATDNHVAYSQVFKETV
As to the kind of experiment: HEK-Blue hTLR7 SEAP reporter gene agonism assay. It is filed as cell-based. As to conditions: HEK-Blue hTLR7 cells, SEAP (Quanti-blue, 650 nm), 16-22 hours incubation. As for the experimental part: (§1) The agonistic activity of the compounds of the present invention on TLR7 or TLR8 was evaluated using HEK-Blue™ cells stably expressing human TLR7 or TLR8. And the agonistic activity was assayed using their ability to induce the SEAP reporter gene under the control of the IFN-β minimal promoter fused to five NF-κB and ap-1 binding sites, specifically as follows:
(§2) HEK-Blue™ hTLR7 (Invivogen, 80,000 cells per well) or HEK-Blue™ hTLR8 (Invivogen, 60,000 cells per well) was added to a 96-well cell culture plate, the compound to be tested is added whereafter, and the final concentration of the compound(s) to be tested in the medium ranged from 0.001 to 36 μM, then incubated for 16-22 hours. SEAP levels in the cell culture medium were detected using HEK-Blue assay reagent Quanti-blue (Invivogen) according to the manufacturer's instructions. Neo2 Multifunctional Enzyme Labeler (Bio-tek) was used to determine the light absorption at 650 nm. GraphPad Prism was utilized to calculate the EC50, which is the half effective concentration of the drug.

In another test the target is T2, human TLR8 (Homo sapiens, UniProt Q9NR97).
T2 construct: host or cells: HEK-Blue hTLR8 (HEK293-derived reporter cells)
T2 sequence (Q9NR97 27-1041): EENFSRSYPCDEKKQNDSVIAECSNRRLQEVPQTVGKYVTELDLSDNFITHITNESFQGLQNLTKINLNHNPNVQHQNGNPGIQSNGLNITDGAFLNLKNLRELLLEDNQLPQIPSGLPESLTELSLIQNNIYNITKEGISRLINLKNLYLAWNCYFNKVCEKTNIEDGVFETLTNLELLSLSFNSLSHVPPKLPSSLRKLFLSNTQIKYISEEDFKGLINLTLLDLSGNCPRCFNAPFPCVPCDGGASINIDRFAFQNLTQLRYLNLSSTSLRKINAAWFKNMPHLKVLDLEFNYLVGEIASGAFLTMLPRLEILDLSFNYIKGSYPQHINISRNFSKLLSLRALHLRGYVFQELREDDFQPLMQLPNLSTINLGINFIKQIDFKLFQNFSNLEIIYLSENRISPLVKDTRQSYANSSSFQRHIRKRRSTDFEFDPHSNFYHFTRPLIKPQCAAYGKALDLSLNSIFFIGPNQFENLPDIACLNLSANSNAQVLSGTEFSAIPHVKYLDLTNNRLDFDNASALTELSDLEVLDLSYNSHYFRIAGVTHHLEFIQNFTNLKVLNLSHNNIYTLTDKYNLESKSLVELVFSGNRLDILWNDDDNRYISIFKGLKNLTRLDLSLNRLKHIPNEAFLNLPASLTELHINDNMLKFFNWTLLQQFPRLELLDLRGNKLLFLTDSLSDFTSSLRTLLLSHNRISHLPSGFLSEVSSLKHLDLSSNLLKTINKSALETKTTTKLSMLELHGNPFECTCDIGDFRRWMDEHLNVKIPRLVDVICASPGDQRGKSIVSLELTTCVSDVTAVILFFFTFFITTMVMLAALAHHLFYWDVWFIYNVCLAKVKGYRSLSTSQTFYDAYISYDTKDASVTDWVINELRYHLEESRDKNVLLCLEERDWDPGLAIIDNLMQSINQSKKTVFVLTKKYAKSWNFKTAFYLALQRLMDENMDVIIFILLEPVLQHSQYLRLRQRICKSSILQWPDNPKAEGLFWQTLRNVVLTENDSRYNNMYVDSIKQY
Put plainly: HEK-Blue hTLR8 SEAP reporter gene agonism assay. It is filed as cell-based. As to conditions: HEK-Blue hTLR8 cells, SEAP (Quanti-blue, 650 nm), 16-22 hours incubation. As for the experimental part: as §1, §2
(In general: Reporter assays use an easily measured gene product as a stand-in for the process of interest.)

As a reminder, the EC50 is the concentration that produces a half-maximal response. The low end stands for greater potency, the high end for weaker potency. For `CCCCNc1nc(N)nc2cnn(Cc3ccc(OCCNC)cc3)c(=O)c12` [Compound I-19, 2-amino-4-(butylamino)-6-(4-(2-(methylamino)ethoxy)benzyl)pyrimido[4,5-d]pyridazin-5(6H)-one], the EC50 amounted to 0.922 µM at human TLR7 and 0.149 µM on human TLR8.
For `CCC[C@@H](C)Nc1nc(N)nc2cnn(Cc3ccc(C(=O)N4CCNCC4)cc3OC)c(=O)c12` [Compound I-24, (R)-2-amino-6-(2-methoxy-4-(piperazine-1-carbonyl)benzyl)-4-(pentan-2-ylamino)pyrimido[4,5-d]pyridazin-5(6H)-one], in that order: 0.634 µM and 0.194 µM.
In the same order, the values of `CCC[C@@H](C)Nc1nc(N)nc2cnn(Cc3ccc(CN4CCCC4)cc3OC)c(=O)c12` [Compound I-25, (R)-2-amino-6-(2-methoxy-4-(pyrrolidin-1-ylmethyl)benzyl)-4-(pentan-2-ylamino)pyrimido[4,5-d]pyridazin-5(6H)-one] are 0.631 µM and 0.147 µM.
In the case of `CCC[C@@H](C)Nc1nc(N)nc2cnn(Cc3ccc(OCCNC)cc3)c(=O)c12` [Compound I-39, (R)-2-amino-6-(4-(2-(methylamino)ethoxy)benzyl)-4-(pentan-2-ylamino)pyrimido[4,5-d]pyridazin-5(6H)-one], the results for the EC50 on human TLR7 and at human TLR8 were 0.641 µM and 0.181 µM, respectively.
Regarding `CCC[C@@H](C)Nc1nc(N)nc2cnn(Cc3ccc(CN4CCCC4)cc3)c(=O)c12` [Compound I-40, (R)-2-amino-4-(pentan-2-ylamino)-6-(4-(pyrrolidin-1-ylmethyl)benzyl)pyrimido[4,5-d]pyridazin-5(6H)-one], the concentration for a half-maximal effect (EC50) at human TLR7 came to 0.9 µM; at human TLR8 it was 0.083 µM.
For `CCC[C@@H](C)Nc1nc(N)nc2cnn(Cc3ccc(OCCNC)nc3)c(=O)c12` [Compound I-47, (R)-2-amino-6-((6-(2-(methylamino)ethoxy)pyridin-3-yl)methyl)-4-(pentan-2-ylamino)pyrimido[4,5-d]pyridazin-5(6H)-one], in that order: 0.357 µM and 0.07 µM.
As for `CCC[C@@H](C)Nc1nc(N)nc2cnn(Cc3ccc(CN4CCN(C)CC4)cc3)c(=O)c12` [Compound I-48, (R)-2-amino-6-(4-((4-methylpiperazin-1-yl)methyl)benzyl)-4-(pentan-2-ylamino)pyrimido[4,5-d]pyridazin-5(6H)-one], the EC50 worked out at 0.921 µM on human TLR7 and 0.203 µM at human TLR8.
For `CCC[C@@H](C)Nc1nc(N)nc2cnn(Cc3ccc(CN(C)CCO)cc3)c(=O)c12` [Compound I-49], in that order: 0.964 µM and 0.073 µM.
For `CCC[C@@H](C)Nc1nc(N)nc2cnn(Cc3ccc(CN4CCNCC4)cc3)c(=O)c12` [Compound I-50, (R)-2-amino-4-(pentan-2-ylamino)-6-(4-(piperazin-1-ylmethyl)benzyl)pyrimido[4,5-d]pyridazin-5(6H)-one], in that order: 0.77 µM and 0.157 µM.
For `CCCN[C@H](C)c1ccc(Cn2ncc3nc(N)nc(N[C@H](C)CCC)c3c2=O)cc1` [Compound I-51, 2-amino-4-(((R)-pentan-2-yl)amino)-6-(4-((R)-1-(propylamino)ethyl)benzyl)pyrimido[4,5-d]pyridazine-5(6H)-one], in that order: 0.892 µM and 0.141 µM.
As to `CCC[C@@H](CO)Nc1nc(N)nc2cnn(Cc3ccc(C(=O)N4CCNCC4)cc3)c(=O)c12` [Compound I-58, (S)-2-amino-4-((1-hydroxypentan-2-yl)amino)-6-(4-(piperazine-1-carbonyl)benzyl)pyrimido[4,5-d]pyridazin-5(6H)-one], the EC50 on human TLR8 was 0.073 µM.
On the same count and under the same terms, to `CCC[C@@H](CO)Nc1nc(N)nc2cnn(Cc3ccc(CN4CCCC4)cc3)c(=O)c12` [Compound I-59, (S)-2-amino-4-((1-hydroxypentan-2-yl)amino)-6-(4-(pyrrolidin-1-ylmethyl)benzyl)pyrimido[4,5-d]pyridazin-5(6H)-one] belongs 0.009 µM; to `CCC[C@@H](C)Nc1nc(N)nc2cnn(Cc3ccc(C(=O)N4CCN(C)CC4)cc3)c(=O)c12` [Compound I-60, (R)-2-amino-6-(4-(4-methylpiperazine-1-carbonyl)benzyl)-4-(pentan-2-ylamino)pyrimido[4,5-d]pyridazin-5(6H)-one], 0.192 µM.
The same measure, in the same setting: in the case of `CCCCNc1nc(N)nc2cnn(Cc3ccc(CN4CCCC4)cn3)c(=O)c12` [Compound I-62, 2-amino-4-(butylamino)-6-((5-(pyrrolidin-1-ylmethyl)pyridin-2-yl)methyl)pyrimido[4,5-d]pyridazin-5(6H)-one] it was 0.589 µM; in that of `CCC[C@@H](CC)Nc1nc(N)nc2cnn(Cc3ccc(CN4CCCC4)cc3)c(=O)c12` [Compound I-63, (R)-2-amino-4-(hexan-3-ylamino)-6-(4-(pyrrolidin-1-ylmethyl)benzyl)pyrimido[4,5-d]pyridazin-5(6H)-one], 0.534 µM.
On human TLR8, `CCC[C@@H](CO)Nc1nc(N)nc2cnn(Cc3ccc(CN4CCN(C)CC4)cc3)c(=O)c12` [Compound I-66, (S)-2-amino-4-((1-hydroxypentan-2-yl)amino)-6-(4-((4-methylpiperazin-1-yl)methyl)benzyl)pyrimido[4,5-d]pyridazin-5(6H)-one] returned a half-maximal effective concentration (EC50) of 0.023 µM.
In the case of `CCCC[C@@H](CO)Nc1nc(N)nc2cnn(Cc3ccc(CN4CCCC4)cc3)c(=O)c12` [Compound I-67, (S)-2-amino-4-((1-hydroxyhexan-2-yl)amino)-6-(4-(pyrrolidin-1-ylmethyl)benzyl)pyrimido[4,5-d]pyridazin-5(6H)-one], a half-maximal effect on human TLR8 (EC50) was put at 0.051 µM.
Take `CCC[C@@H](CO)Nc1nc(N)nc2cnn(Cc3ccc(C(=O)N4CCN(C)CC4)cc3)c(=O)c12` [Compound I-69, (S)-2-amino-4-((1-hydroxypentan-2-yl)amino)-6-(4-(4-methylpiperazine-1-carbonyl)benzyl)pyrimido[4,5-d]pyridazin-5(6H)-one]: a half-maximal effect at human TLR8 (EC50) was put at 0.041 µM.
On human TLR8, `CCC[C@@H](CO)Nc1nc(N)nc2cnn(Cc3ccc(C(=O)N4CC5CC(C4)N5)cc3)c(=O)c12` [Compound I-70, 6-(4-(3,6-diazabicyclo[3.1.1]heptane-3-carbonyl)benzyl)-2-amino-4-(((S)-1-hydroxypentan-2-yl)amino)pyrimido[4,5-d]pyridazin-5(6H)-one] displayed a half-maximal effective concentration (EC50) of 0.02 µM.
